Source: patent US20120122843A1, “Compounds and Their Use for Treatment of Amyloid Beta-Related Diseases” (ASTRAZENECA AB, priority 2010, published 2012)

Experiments:
[1] = tested on: Aβ42; experiment: Aβ42 release from HEK cells stably expressing APPswe (MSD electrochemiluminescence); format: cell-based, Human; details: 4-6 h incubation with test compound, Aβ42 secreted to cell medium
Method in brief: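 HEK cells stably expressing APPswe, plated 15–24 h, then given compound in fresh medium (diluted ×200 from compound plate) for 4–6 h at 37 °C. Secreted Aβ in medium measured by MSD electrochemiluminescence; total Aβ via 6E10 plus 4G8 antibodies, Aβ42 via specific antibody. Cytotoxicity checked by ATP content of lysate.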

[2] = tested on: Aβtotal; experiment: Total Aβ release from HEK cells stably expressing APPswe (MSD, 6E10 and 4G8 antibodies); format: cell-based; details: Homo sapiens, HEK293, 4-6 h incubation with test compound, total Aβ secreted to cell medium
Protocol: The level of activity of the compounds on Aβ formation was tested using the following method:
Compounds were diluted in 100% DMSO and stored at […] prior to use. Human Embryonic Kidney (HEK) cell line stably expressing APP with the Swedish mutation (APPswe) were cultured using Dulbecco's Modified Eagles medium (DMEM) supplied with […] glucose, Na-pyruvate and GlutaMAX with 10% FBS, 100 U/ml penicillin-streptomycin (PEST) respectively, 1× non-essential amino acids (NEAA), […] Hepes, 100 μg/ml Zeocine. Cells at about 80% confluence were washed with PBS, detached from culture flasks using 1× Trypsin/EDTA diluted in PBS, re-suspended in cell media and plated in 384-well poly-d-lysine coated cell culture plates at about 10000-15000 cells/well, in 25 μL cell media. Optionally, cryo-preserved cells (frozen and stored at −140° C. in 90% cell media and 10% DMSO) were thawed, washed and plated as above. Next the cells were incubated for 15-24 h at 37° C. and 5% CO2, after which cell medium was changed. Fresh medium containing test compound diluted ×200 from prepared compound plate was added to the cells before further incubation for 4-6 hours at 37° C. and 5% CO2. After incubation with test compound the amount of Aβ peptides, including Aβ42, Aβ40, Aβ39, Aβ38 and Aβ37, as well as total Aβ levels, secreted to cell medium was analyzed using the electrochemiluminescence assay technology from Meso Scale Discovery (MSD), in combination with specific antibodies raised against the different Aβ peptides. Aβ42, Aβ40 and Aβ38 antibodies were purchased from MSD and Aβ37 and Aβ39 were made in house. Total Aβ was measured using a combination of 6E10 and 4G8 anti Aβ antibodies from MSD. Potential cytotoxic effects of the compounds were usually assayed by measuring the ATP content (ViaLight) from cell lysate.

[3] = tested on: Notch; experiment: Release and translocation of Notch intracellular domain into the nucleus, HEK/AENotch cells (NICD immunostaining, ImageXpress); format: cell-based, Human; details: 3 μM Lactacystin, 4-6 h incubation, nucleus/cytosol NICD fluorescence ratio
Protocol: The level of activity of the compounds on release and translocation of Notch intracellular domain into the cell nucleus was tested using the following method:
Compounds were diluted in 100% DMSO and stored at […] prior to use. Human Embryonic Kidney cell line overexpressing Notchl-E-human-myc construct (referred to as HEK/AENotch) were cultured in T75 cm^2 or T225 cm^2 cell culture flasks using Dulbecco's Modified Eagles medium (DMEM) supplemented with […] glucose, Na-pyruvate and GlutaMAX with 10% FBS, 100 U/ml penicillin-streptomycin (PEST) respectively, 1× non-essential amino acids (NEAA), […] Hepes and 100 μg/ml Hygromycin. Cells at about 80% confluence were washed with PBS, detached from the flask bottom using 1× Trypsin/EDTA diluted in PBS, re-suspended in cell media and plated in 384-well plates at about 10000 cells/well, in 25 μL cell media. Optionally, cryo-preserved cells (frozen and stored at −140° C. in 90% cell media and 10% DMSO) were thawed, washed and plated as above. Next the cells were incubated for 15-24 h at 37° C. and 5% CO2, after which cell medium was replaced with fresh medium containing 3 μM Lactacystin and test compound diluted ×200 from prepared compound plate giving 0.5% final DMSO concentration, and the highest compound concentration typically 25 μM. Cells were then incubated 4-6 h with test compound before being fixed, washed and immunostained with NICD antibody (rabbit Notch 1 (C-20)). Image acquisition of cytosolic/membrane and nuclear fluorescence as well as subsequent analysis of the nucleus and cytosolic fluorescence ratio was carried out using ImageXpress. Potential cytotoxic effects of the compounds were usually assayed by analysis of nucleus area or cell number.

[4] = Homo sapiens, HEK293, HEK cells expressing APPswe

SMILES	IC50 [1, 4] [µM]	IC50 [2] [µM]	IC50 ([3]; Homo sapiens) [µM]	IC50 ([1]; HEK cells expressing APPswe) [µM]	IC50 [3] [µM]
COc1nc(Nc2ccc3c(n2)OC(CC(F)(F)F)CN(C)C3C)ccc1-c1cnn(C)c1 (single isomer, unassigned) [Example 33, N-(6-Methoxy-5-(1-methyl-1H-pyrazol-4-yl)pyridin-2-yl)-4,5-dimethyl-2-(2,2,2-trifluoroethyl)-2,3,4,5-tetrahydropyrido[3,2-f][1,4]oxazepin-8-amine]	0.008	> 5	> 25	–	–
COc1nc(Nc2ccc3c(n2)OC(c2nc(C)cs2)CN(C)C3)ccc1-n1cnc(C)c1 (stereo not shown) [Example 12, N-(6-Methoxy-5-(4-methyl-1H-imidazol-1-yl)pyridin-2-yl)-4-methyl-2-(4-methylthiazol-2-yl)-2,3,4,5-tetrahydropyrido[3,2-f][1,4]oxazepin-8-amine]	0.013	1.85	> 25	–	–
COc1nc(Nc2ccc3c(n2)OC(CCC(F)(F)F)CN(C)C3)ccc1-c1cnn(C)c1 (single isomer, unassigned; (+)) [Example 57, (+)-N-[6-Methoxy-5-(1-methylpyrazol-4-yl)-2-pyridyl]-4-methyl-2-(3,3,3-trifluoropropyl)-3,5-dihydro-2H-pyrido[3,2-f][1,4]oxazepin-8-amine]	–	–	–	0.005	> 11.5
Cc1cn(-c2ccc(Nc3ccc4c(n3)O[C@H](c3ccccc3)CN(C)C4)nc2)cn1 [Example 14, (R)-4-Methyl-N-(5-(4-methyl-1H-imidazol-1-yl)pyridin-2-yl)-2-phenyl-2,3,4,5-tetrahydropyrido[3,2-f][1,4]oxazepin-8-amine]	0.024	–	> 50	–	–
COc1nc(Nc2ccc3c(n2)O[C@H](c2ccc(F)cn2)CN(C)C3C)ccc1-n1cnc(C)c1 (single isomer, unassigned; (-)) [Example 53]	–	–	–	0.011	> 7.9
COc1nc(Nc2ccc3c(n2)OC(c2ncc(C)s2)CN(C)C3)ccc1-n1cnc(C)c1 (single isomer, unassigned; (-)) [Example 65, (−)-N-(6-Methoxy-5-(4-methyl-1H-imidazol-1-yl)pyridin-2-yl)-4-methyl-2-(5-methylthiazol-2-yl)-2,3,4,5-tetrahydropyrido[3,2-f][1,4]oxazepin-8-amine]	–	–	> 25	0.009	–
COc1nc(Nc2ccc3c(n2)O[C@H](c2ccc(F)cn2)CN(C)C3C)ccc1-c1cnn(C)c1 (single isomer, unassigned) [Example 51]	–	–	–	0.019	> 25
COc1nc(Nc2ccc3c(n2)OC(c2nc(C)cs2)C(C)N(C)C3)ccc1-c1cnn(C)c1 (single isomer, unassigned) [Example 29, N-(6-Methoxy-5-(1-methyl-1H-pyrazol-4-yl)pyridin-2-yl)-3,4-dimethyl-2-(4-methylthiazol-2-yl)-2,3,4,5-tetrahydropyrido[3,2-f][1,4]oxazepin-8-amine]	–	–	–	0.068	5
COc1nc(Nc2ccc3c(n2)OC(C2CC(F)(F)C2)CN(C)C3)ccc1-c1cnn(C)c1 (single isomer, unassigned) [Example 38, 2-(3,3-Difluorocyclobutyl)-N-(6-methoxy-5-(1-methyl-1H-pyrazol-4-yl)pyridin-2-yl)-4-methyl-2,3,4,5-tetrahydropyrido[3,2-f][1,4]oxazepin-8-amine]	–	–	–	0.015	> 25
COc1nc(Nc2ccc3c(n2)OC(CC(F)(F)F)CN(C)C3)ccc1-n1cnc(C)c1 (stereo not shown) [Example 6, N-(6-Methoxy-5-(4-methyl-1H-imidazol-1-yl)pyridin-2-yl)-4-methyl-2-(2,2,2-trifluoroethyl)-2,3,4,5-tetrahydropyrido[3,2-f][1,4]oxazepin-8-amine]	0.018	–	> 7.9	–	–
COc1nc(Nc2ccc3c(n2)OC(CC(F)(F)F)CN(C)C3)ccc1-c1cnn(C)c1 (single isomer, unassigned; (-)) [Example 5, (−)-N-(6-Methoxy-5-(1-methyl-1H-pyrazol-4-yl)pyridin-2-yl)-4-methyl-2-(2,2,2-trifluoroethyl)-2,3,4,5-tetrahydropyrido[3,2-f][1,4]oxazepin-8-amine]	–	–	–	0.021	> 25
COc1nc(Nc2ccc3c(n2)OC(c2nc(C)cs2)C(C)N(C)C3)ccc1-n1cnc(C)c1 (single isomer, unassigned; (+)) [Example 60, (+)-N-(6-Methoxy-5-(4-methyl-1H-imidazol-1-yl)pyridin-2-yl)-3,4-dimethyl-2-(4-methylthiazol-2-yl)-2,3,4,5-tetrahydropyrido[3,2-f][1,4]oxazepin-8-amine]	–	–	–	0.017	> 25
COc1nc(Nc2ccc3c(n2)OC(CC(F)(F)F)CN(C)C3)ccc1-c1ccnc(C)n1 (stereo not shown) [Example 46, N-[6-Methoxy-5-(2-methylpyrimidin-4-yl)-2-pyridyl]-4-methyl-2-(2,2,2-trifluoroethyl)-3,5-dihydro-2H-pyrido[3,2-f][1,4]oxazepin-8-amine]	0.033	–	> 25	–	–
COc1nc(Nc2ccc3c(n2)O[C@H](c2ccccc2)CN(C)C3)ccc1-c1cn[nH]c1 [Example 56, (2R)—N-[6-Methoxy-5-(1H-pyrazol-4-yl)-2-pyridyl]-4-methyl-2-phenyl-3,5-dihydro-2H-pyrido[3,2-f][1,4]oxazepin-8-amine]	0.098	–	> 25	–	–
Cc1cn(-c2ccc(Nc3cc(C)c4c(n3)OC(CC(F)(F)F)CN(C)C4)nc2)cn1 (stereo not shown) [Example 1, 4,6-Dimethyl-N-(5-(4-methyl-1H-imidazol-1-yl)pyridin-2-yl)-2-(2,2,2-trifluoroethyl)-2,3,4,5-tetrahydropyrido[3,2-f][1,4]oxazepin-8-amine]	0.225	–	> 50	–	–
COc1nc(Nc2ccc3c(n2)OC(c2cc(C)ccn2)CN(C)C3)ccc1-c1cnn(C)c1 (stereo not shown) [Example 42, N-(6-Methoxy-5-(1-methyl-1H-pyrazol-4-yl)pyridin-2-yl)-4-methyl-2-(4-methylpyridin-2-yl)-2,3,4,5-tetrahydropyrido[3,2-f][1,4]oxazepin-8-amine]	0.046	–	> 25	–	–
COc1nc(Nc2ccc3c(n2)OC(CC(F)(F)F)CN(C)C3C)ccc1-c1cnn(C)c1 (single isomer, unassigned) [Example 35, N-(6-Methoxy-5-(1-methyl-1H-pyrazol-4-yl)pyridin-2-yl)-4,5-dimethyl-2-(2,2,2-trifluoroethyl)-2,3,4,5-tetrahydropyrido[3,2-f][1,4]oxazepin-8-amine]	–	–	–	0.012	> 25
COc1nc(Nc2cc(C)c3c(n2)OC(C2CCCO2)CN(C)C3)ccc1-c1cnn(C)c1 (single isomer, unassigned) [Example 25, N-(6-Methoxy-5-(1-methyl-1H-pyrazol-4-yl)pyridin-2-yl)-4,6-dimethyl-2-(tetrahydrofuran-2-yl)-2,3,4,5-tetrahydropyrido[3,2-f][1,4]oxazepin-8-amine]	0.073	–	> 7.9	–	–
COc1nc(Nc2ccc3c(n2)OC(c2ccc(C)cn2)CN(C)C3)ccc1-c1cnn(C)c1 (stereo not shown) [Example 41, N-(6-Methoxy-5-(1-methyl-1H-pyrazol-4-yl)pyridin-2-yl)-4-methyl-2-(5-methylpyridin-2-yl)-2,3,4,5-tetrahydropyrido[3,2-f][1,4]oxazepin-8-amine]	0.06	–	> 25	–	–
